Source: patent US7037656B2, “Methods and compositions for identifying ligands for nuclear receptors” (priority 2000, dated 2006)

Columns and labels:
Assay in all cases: Yeast 6x EcRE-lacZ β-galactosidase transactivation assay
Type in all cases: cell-based
[1] = target: T1, Cf ΔA/B EcR + Cf ΔA/B USP (Choristoneura fumiferana, UniProt O77240); conditions: RH 5992 10 μM, 4 hours, DMSO control 0.209
T1 construct: human ubiquitin (76 aa) (N, cleaved yes); expressed in transfected cells; host or cells: yeast (Saccharomyces cerevisiae)
Procedure: (§1) Briefly, yeast cells are cultured in 5 mL of YPD liquid medium overnight at 30° C. The cell culture was diluted 1:20 in YPD media and further grown until cell density reached an O.D of 0.6. at OD600. The cells were pelleted by centrifugation and washed with 10 mL of TE+0.1M lithium acetate. Cells are then resuspended in 10 mL TE+0.1M lithium acetate and incubated at 30° C. for 1 hour. Cells are collected and resuspended in 0.5 mL of TE+ 0.1M lithium acetate. Aliquots of cells (50 μL), were incubated for 15 minutes at 30° C. with 1–2 μg plasmid DNA in the presence of 5 μg of denatured salmon sperm DNA as DNA carrier. In the case of co-transformation, the indicated plasmids were added simultaneously. 50% polyethyleneglycol of molecular weight 4000, diluted in TE, was added to a final concentration of 35%. DMSO was added to the transformation solution simultaneously to a final concentration 3%. The samples were mixed well by vortexing and incubated for an additional 30 minutes at 30° C. The cell mixture is then heated for 15 minutes at 42° C. Cells were then collected and plated onto appropriate yeast selective media. Transformants of 4 plasmids are selected on the complete media without tryptophan, uracil, leucine and histidine.
(§2) The yeast cells grown overnight in selective liquid media at 30° C. were diluted in prewarmed liquid selective media to 0.1 at OD600 (ODculture). 100 μl of the cell culture was spiked to each well of a.96-well microtiter plate. Ligand (2 μl diluted in DMSO) was added to each well giving a final concentration of DMSO of 2%. As a control, 2 μl of DMSO were also added to additional test wells. The final concentration of the tested compounds in the media is 10 μM. The cells were incubated in the presence of ligand in a shaker at 30° C. After 4 hours of incubation, 100 μl of 2× “Z” Sarcosine-ONPG buffer (120 mM Na2HPO4, 80 mM NaH2PO4, 20 mM KCl, 2 mM MgSO4, 100 mM beta-mercaptoethanol (Sigma), pH 7.0, 0.4% lauroyl sarcosine (Sigma), 4 mg/mL ONPG (Diagnostic Chemicals limited) was added to each well and the plate was further incubated at 37° C. The 2× “Z” Sarcosine-ONPG buffer is freshly prepared or stored at −20° C. prior to use. After incubation at 37° C. for 1 hour. The reaction was stopped by adding 100 μL of quenching solution 0.5 M Na2CO3 and OD405 (ODreaction) and beta-galactosidase activity was measured in a micro plate reader (Biotek) at a wave length of 405–450 nanometers. The effect of copper on enhancement of the transactivation response mediated by the ligands tested was studied by adding CuSO4 to the media to a final concentration of 10 μM.
(§3) Using the transformation method described above, yeast were co-transformed with a reporter gene as shown in FIG. 2 and the expression vector encoding the full-length Choristoneura fumiferana ecdysone receptor, Cf EcR (FIG. 5A) in the presence or absence of the Cf EcR heterodimer partner, Cf USP (FIG. 6A). Transformed cells were incubated with DMSO alone as a control, or with a proprietary ecdysone receptor ligand (Rohm & Haas RH5992) at final concentration 10 μM for 4 hours. The samples were then assayed for β-galactosidase activity as described above. […] However, as with all systems tested, fruit fly, mosquito and spruce bud worm, co-expression of CfEcR with CfUSP did give rise to constitutive transactivation of reporter gene. […] However, deletion of the A/B domain of the CfUSP abolished this constitutive transactivation of the reporter gene. Thus, in the spruce bud worm system, constitutive transcription is not observed when CfEcR/Cf ΔAB USP or Cf ΔAB EcR/Cf ΔAB USP are co-expressed. […] Ligand dependent transactivation was observed only in the presence of the co-activator GRIP1. We also observed stronger ligand dependent activity for the Cf ΔA/B EcR+Cf ΔA/B USP+GRIP1 combination than the CfEcR+CfΔA/B USP+GRIP1 combination.

Cf EcR + Cf ΔA/B USP = target: T2, Cf EcR + Cf ΔA/B USP (Choristoneura fumiferana, UniProt O77240); conditions: RH 5992 10 μM, 4 hours, DMSO control 0.205
T2 construct: human ubiquitin (76 aa) (N, cleaved yes); expressed in transfected cells; host or cells: yeast (Saccharomyces cerevisiae)
Procedure: as §1, §2, §3

Cf EcR = target: T3, Cf EcR (Choristoneura fumiferana, UniProt O77240); conditions: RH 5992 10 μM, 4 hours, DMSO control 0.201
T3 construct: human ubiquitin (76 aa) (N, cleaved yes); expressed in transfected cells; host or cells: yeast (Saccharomyces cerevisiae), plasmid YEpCfEcR, CUP1 promoter
Procedure: as §1, §2, §3

Cf EcR + CfUSP = target: T4, Cf EcR + CfUSP (Choristoneura fumiferana, UniProt O77240); conditions: RH 5992 10 μM, 4 hours, DMSO control 2.734
T4 construct: human ubiquitin (76 aa) (N, cleaved yes); expressed in transfected cells; host or cells: yeast (Saccharomyces cerevisiae)
Procedure: as §1, §2, §3

[2] = target: T5, Cf EcR + Cf ΔA/B USP + GRIP1 (Choristoneura fumiferana, UniProt O77240)
T5 construct: human ubiquitin (76 aa) (N, cleaved yes); expressed in transfected cells; host or cells: yeast (Saccharomyces cerevisiae); GRIP1 from pRS423-ADH1GRIP812
Procedure: as §1, §2, §3

Cf USP = target: T6, Cf USP (Choristoneura fumiferana, UniProt O76202); conditions: RH 5992 10 μM, 4 hours, DMSO control 0.233
T6 construct: human ubiquitin (76 aa) (N, cleaved yes); expressed in transfected cells; host or cells: yeast (Saccharomyces cerevisiae), plasmid pRS425CfUSP, CUP1 promoter
Procedure: as §1, §2, §3

Cf ΔA/B EcR + Cf USP = target: T7, Cf ΔA/B EcR + Cf USP (Choristoneura fumiferana, UniProt O77240); conditions: RH 5992 10 μM, 4 hours, DMSO control 2.684
T7 construct: human ubiquitin (76 aa) (N, cleaved yes); expressed in transfected cells; host or cells: yeast (Saccharomyces cerevisiae)
Procedure: as §1, §2, §3

T5 sequence (O77240 1-513, stated change not applied): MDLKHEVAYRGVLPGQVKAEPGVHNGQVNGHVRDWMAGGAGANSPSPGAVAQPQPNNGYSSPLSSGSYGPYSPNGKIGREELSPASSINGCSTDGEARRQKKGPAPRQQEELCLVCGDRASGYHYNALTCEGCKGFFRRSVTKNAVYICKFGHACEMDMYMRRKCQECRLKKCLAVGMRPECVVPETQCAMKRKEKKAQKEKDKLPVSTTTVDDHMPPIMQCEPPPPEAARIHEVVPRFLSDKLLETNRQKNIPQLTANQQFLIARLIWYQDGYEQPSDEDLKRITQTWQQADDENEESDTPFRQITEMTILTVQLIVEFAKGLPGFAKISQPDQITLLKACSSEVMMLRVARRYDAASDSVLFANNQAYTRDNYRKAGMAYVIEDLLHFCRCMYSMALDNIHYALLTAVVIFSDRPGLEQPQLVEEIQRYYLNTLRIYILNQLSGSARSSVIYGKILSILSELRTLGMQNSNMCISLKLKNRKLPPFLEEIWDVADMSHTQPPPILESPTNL
T5 sequence (O76202 with tags, fused parts or gaps partner): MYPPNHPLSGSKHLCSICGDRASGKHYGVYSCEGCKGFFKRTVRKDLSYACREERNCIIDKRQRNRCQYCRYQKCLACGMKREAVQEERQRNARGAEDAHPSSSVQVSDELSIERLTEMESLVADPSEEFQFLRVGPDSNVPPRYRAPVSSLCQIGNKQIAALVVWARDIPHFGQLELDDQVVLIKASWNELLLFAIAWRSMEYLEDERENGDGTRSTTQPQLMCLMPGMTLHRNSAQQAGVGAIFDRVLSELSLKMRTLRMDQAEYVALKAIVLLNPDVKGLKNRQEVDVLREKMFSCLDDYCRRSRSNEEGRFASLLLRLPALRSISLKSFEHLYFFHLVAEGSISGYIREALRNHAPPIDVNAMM
T6 sequence (O76202 whole entry): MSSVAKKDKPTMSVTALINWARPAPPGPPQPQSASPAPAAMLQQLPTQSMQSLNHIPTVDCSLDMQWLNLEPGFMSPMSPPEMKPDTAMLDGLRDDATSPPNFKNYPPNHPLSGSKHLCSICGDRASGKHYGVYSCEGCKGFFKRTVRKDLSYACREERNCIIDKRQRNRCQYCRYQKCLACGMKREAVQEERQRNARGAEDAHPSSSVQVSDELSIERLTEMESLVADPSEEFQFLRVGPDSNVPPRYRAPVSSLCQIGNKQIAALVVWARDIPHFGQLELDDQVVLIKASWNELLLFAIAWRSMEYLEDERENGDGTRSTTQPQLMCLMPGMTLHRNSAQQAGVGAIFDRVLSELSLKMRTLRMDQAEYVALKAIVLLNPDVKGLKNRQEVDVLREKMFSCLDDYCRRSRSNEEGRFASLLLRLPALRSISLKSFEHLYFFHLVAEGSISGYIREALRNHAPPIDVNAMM
T2 sequence (O77240 1-513, stated change not applied): as the sequence (O77240 1-513, stated change not applied) above
T2 sequence (O76202 with tags, fused parts or gaps partner): as the sequence (O76202 with tags, fused parts or gaps partner) above
T3 sequence (O77240 1-513): as the sequence (O77240 1-513, stated change not applied) above
T4 sequence (O77240 1-513): as the sequence (O77240 1-513, stated change not applied) above
T4 sequence (O76202 whole entry partner): as the sequence (O76202 whole entry) above
T1 sequence (O77240 entry or part of it, stated change not applied): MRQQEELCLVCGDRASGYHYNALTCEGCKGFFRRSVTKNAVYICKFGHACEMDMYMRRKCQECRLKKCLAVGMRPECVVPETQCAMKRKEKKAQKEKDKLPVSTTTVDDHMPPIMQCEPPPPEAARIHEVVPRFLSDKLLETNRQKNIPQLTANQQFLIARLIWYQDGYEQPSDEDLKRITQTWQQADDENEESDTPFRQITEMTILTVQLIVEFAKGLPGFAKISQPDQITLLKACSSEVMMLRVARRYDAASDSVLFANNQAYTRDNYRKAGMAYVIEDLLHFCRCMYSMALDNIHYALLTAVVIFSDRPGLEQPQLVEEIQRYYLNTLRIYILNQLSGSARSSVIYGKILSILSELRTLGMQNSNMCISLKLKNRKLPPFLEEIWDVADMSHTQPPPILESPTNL
T1 sequence (O76202 with tags, fused parts or gaps partner): as the sequence (O76202 with tags, fused parts or gaps partner) above
T7 sequence (O77240 entry or part of it, stated change not applied): as the sequence (O77240 entry or part of it, stated change not applied) above
T7 sequence (O76202 whole entry partner): as the sequence (O76202 whole entry) above

`CCc1ccc(C(=O)NN(C(=O)c2cc(C)cc(C)c2)C(C)(C)C)cc1` [RH 5992, tebufenozide] was tested, and the β-galactosidase activity [1] was 0.234, the β-galactosidase activity (Cf EcR + Cf ΔA/B USP) was 0.241 and the β-galactosidase activity (Cf EcR) was 0.175. For the same compound, the β-galactosidase activity (Cf EcR + CfUSP) was 3.000, the β-galactosidase activity ([2]; RH 5992 10 μM, 4 hours, yeast, Cf EcR + Cf ΔA/B USP + GRIP1, DMSO control 0.223) was 0.492 and the “response of the complex to the ligand (in words)” value ([2]; complex CfEcR:CfΔA/B USP:GRIP1) was “responsive, but not very sensitive”. It also gave a β-galactosidase activity (Cf USP) of 0.230 and a β-galactosidase activity (Cf ΔA/B EcR + Cf USP) of 3.000.
